Laboratory results as given in the NIST ThermoML archive (doi:10.1016/j.fluid.2008.03.004).
Numbers after ± are expanded uncertainties.

Assay: xn = mol fraction of the nth substance listed
Settings: 101 kPa, Liquid; for speed of sound: Sing-around technique in a fixed-path interferometer

Cc1ccccc1C [1,2-dimethylbenzene] + COC(C)(C)C
Settings | mass density [kg/m3] | speed of sound [m/s]
288.15 K, x2 = 0 | 883.36 ± 0.35 | 1381.3 ± 2.2
288.15 K, x2 = 0.052 | 876.722 ± 0.38 | 1374.2 ± 2.2
288.15 K, x2 = 0.101 | 870.811 ± 0.39 | 1361.2 ± 2.2
288.15 K, x2 = 0.203 | 857.652 ± 0.41 | 1332.7 ± 2.2
288.15 K, x2 = 0.303 | 844.603 ± 0.42 | 1302.7 ± 2.2
288.15 K, x2 = 0.401 | 831.766 ± 0.44 | 1274.2 ± 2.2
288.15 K, x2 = 0.499 | 818.201 ± 0.46 | 1243.3 ± 2.2
288.15 K, x2 = 0.604 | 803.537 ± 0.49 | 1212.8 ± 2.2
288.15 K, x2 = 0.707 | 788.841 ± 0.51 | 1179 ± 2.2
288.15 K, x2 = 0.8 | 775.294 ± 0.53 | 1148.4 ± 2.2
288.15 K, x2 = 0.9 | 760.339 ± 0.55 | 1119.5 ± 2.2
288.15 K, x2 = 0.95 | 752.593 ± 0.56 | 1099.1 ± 2.2
290.65 K, x2 = 0 | 881.265 ± 0.35 | 1371.8 ± 2.2
290.65 K, x2 = 0.052 | 874.606 ± 0.38 | 1364.9 ± 2.2
290.65 K, x2 = 0.101 | 868.675 ± 0.39 | 1350.7 ± 2.2
290.65 K, x2 = 0.203 | 855.478 ± 0.41 | 1322.1 ± 2.2
290.65 K, x2 = 0.303 | 842.386 ± 0.43 | 1292 ± 2.2
290.65 K, x2 = 0.401 | 829.505 ± 0.45 | 1263.3 ± 2.2
290.65 K, x2 = 0.499 | 815.897 ± 0.47 | 1232.4 ± 2.2
290.65 K, x2 = 0.604 | 801.177 ± 0.49 | 1201.5 ± 2.2
290.65 K, x2 = 0.707 | 786.421 ± 0.51 | 1167.7 ± 2.2
290.65 K, x2 = 0.8 | 772.825 ± 0.53 | 1136.8 ± 2.2
290.65 K, x2 = 0.9 | 757.801 ± 0.55 | 1107.9 ± 2.2
290.65 K, x2 = 0.95 | 750.025 ± 0.57 | 1087.4 ± 2.2
293.15 K, x2 = 0 | 879.168 ± 0.35 | 1362.2 ± 2.2
293.15 K, x2 = 0.052 | 872.486 ± 0.38 | 1354.8 ± 2.2
293.15 K, x2 = 0.101 | 866.535 ± 0.39 | 1340.3 ± 2.2
293.15 K, x2 = 0.203 | 853.3 ± 0.41 | 1311.6 ± 2.2
293.15 K, x2 = 0.303 | 840.168 ± 0.43 | 1281.4 ± 2.2
293.15 K, x2 = 0.401 | 827.242 ± 0.45 | 1252.5 ± 2.2
293.15 K, x2 = 0.499 | 813.586 ± 0.47 | 1221.6 ± 2.2
293.15 K, x2 = 0.604 | 798.814 ± 0.49 | 1190.3 ± 2.2
293.15 K, x2 = 0.707 | 783.998 ± 0.52 | 1156.6 ± 2.2
293.15 K, x2 = 0.8 | 770.35 ± 0.54 | 1125.5 ± 2.2
293.15 K, x2 = 0.9 | 755.264 ± 0.56 | 1096.5 ± 2.2
293.15 K, x2 = 0.95 | 747.451 ± 0.57 | 1075.9 ± 2.2
295.65 K, x2 = 0 | 877.069 ± 0.36 | 1351.8 ± 2.2
295.65 K, x2 = 0.052 | 870.364 ± 0.39 | 1344.5 ± 2.2
295.65 K, x2 = 0.101 | 864.394 ± 0.4 | 1329.8 ± 2.2
295.65 K, x2 = 0.203 | 851.12 ± 0.41 | 1301.1 ± 2.2
295.65 K, x2 = 0.303 | 837.944 ± 0.43 | 1270.7 ± 2.2
295.65 K, x2 = 0.401 | 824.973 ± 0.45 | 1241.8 ± 2.2
295.65 K, x2 = 0.499 | 811.273 ± 0.47 | 1210.7 ± 2.2
295.65 K, x2 = 0.604 | 796.444 ± 0.5 | 1179.3 ± 2.2
295.65 K, x2 = 0.707 | 781.567 ± 0.52 | 1145.4 ± 2.2
295.65 K, x2 = 0.8 | 767.869 ± 0.54 | 1114.1 ± 2.2
295.65 K, x2 = 0.9 | 752.717 ± 0.56 | 1085.1 ± 2.2
295.65 K, x2 = 0.95 | 744.871 ± 0.57 | 1064.4 ± 2.2
298.15 K, x2 = 0 | 874.968 ± 0.36 | 1341.5 ± 2.2
298.15 K, x2 = 0.052 | 868.242 ± 0.39 | 1334.2 ± 2.2
298.15 K, x2 = 0.101 | 862.253 ± 0.4 | 1319.6 ± 2.2
298.15 K, x2 = 0.203 | 848.937 ± 0.42 | 1290.6 ± 2.2
298.15 K, x2 = 0.303 | 835.714 ± 0.44 | 1260.1 ± 2.2
298.15 K, x2 = 0.401 | 822.702 ± 0.46 | 1231.1 ± 2.2
298.15 K, x2 = 0.499 | 808.953 ± 0.48 | 1199.9 ± 2.2
298.15 K, x2 = 0.604 | 794.069 ± 0.5 | 1168.2 ± 2.2
298.15 K, x2 = 0.707 | 779.131 ± 0.52 | 1134.3 ± 2.2
298.15 K, x2 = 0.8 | 765.379 ± 0.54 | 1102.7 ± 2.2
298.15 K, x2 = 0.9 | 750.16 ± 0.57 | 1073.7 ± 2.2
298.15 K, x2 = 0.95 | 742.284 ± 0.58 | 1052.9 ± 2.2
300.65 K, x2 = 0 | 872.865 ± 0.36 | 1331.2 ± 2.2
300.65 K, x2 = 0.052 | 866.116 ± 0.39 | 1323.9 ± 2.2
300.65 K, x2 = 0.101 | 860.108 ± 0.4 | 1309.4 ± 2.2
300.65 K, x2 = 0.203 | 846.749 ± 0.42 | 1280.2 ± 2.2
300.65 K, x2 = 0.303 | 833.484 ± 0.44 | 1249.6 ± 2.2
300.65 K, x2 = 0.401 | 820.426 ± 0.46 | 1220.3 ± 2.2
300.65 K, x2 = 0.499 | 806.626 ± 0.48 | 1189.1 ± 2.2
300.65 K, x2 = 0.604 | 791.685 ± 0.5 | 1157.2 ± 2.2
300.65 K, x2 = 0.707 | 776.688 ± 0.53 | 1123.2 ± 2.2
300.65 K, x2 = 0.8 | 762.882 ± 0.55 | 1091.4 ± 2.2
300.65 K, x2 = 0.9 | 747.591 ± 0.57 | 1062.2 ± 2.2
300.65 K, x2 = 0.95 | 739.686 ± 0.58 | 1041.5 ± 2.2
303.15 K, x2 = 0 | 870.759 ± 0.36 | 1321 ± 2.2
303.15 K, x2 = 0.052 | 863.985 ± 0.4 | 1313.7 ± 2.2
303.15 K, x2 = 0.101 | 857.959 ± 0.41 | 1299.2 ± 2.2
303.15 K, x2 = 0.203 | 844.558 ± 0.42 | 1269.8 ± 2.2
303.15 K, x2 = 0.303 | 831.25 ± 0.44 | 1239.1 ± 2.2
303.15 K, x2 = 0.401 | 818.144 ± 0.46 | 1209.7 ± 2.2
303.15 K, x2 = 0.499 | 804.296 ± 0.48 | 1178.4 ± 2.2
303.15 K, x2 = 0.604 | 789.298 ± 0.51 | 1146.3 ± 2.2
303.15 K, x2 = 0.707 | 774.237 ± 0.53 | 1112.1 ± 2.2
303.15 K, x2 = 0.8 | 760.378 ± 0.55 | 1080.2 ± 2.2
303.15 K, x2 = 0.9 | 745.002 ± 0.57 | 1050.7 ± 2.2
303.15 K, x2 = 0.95 | 737.076 ± 0.59 | 1030 ± 2.2
305.65 K, x2 = 0 | – | 1310.8 ± 2.2
305.65 K, x2 = 0.052 | – | 1303.6 ± 2.2
305.65 K, x2 = 0.101 | – | 1289 ± 2.2
305.65 K, x2 = 0.203 | – | 1259.5 ± 2.2
305.65 K, x2 = 0.303 | – | 1228.6 ± 2.2
305.65 K, x2 = 0.401 | – | 1199 ± 2.2
305.65 K, x2 = 0.499 | – | 1167.7 ± 2.2
305.65 K, x2 = 0.604 | – | 1135.3 ± 2.2
305.65 K, x2 = 0.707 | – | 1101 ± 2.2
305.65 K, x2 = 0.8 | – | 1069 ± 2.2
305.65 K, x2 = 0.9 | – | 1038.7 ± 2.2
305.65 K, x2 = 0.95 | – | 1018.6 ± 2.2
